Source: patent publication US12447159B2 (AELIS FARMA, priority 2018, dated 2025)
Like-named read-outs stand apart in the source and are kept apart here.

Columns and labels:
[1] = molecular target: T1, human CB1 (hCB1) receptor (Homo sapiens, UniProt P21554); assay: THC-induced increase in MAPK phosphorylation, HEK-293 cells transiently transfected with hCB1 (western blot, P-MAPK/MAPK); type: cell-based; details: THC 10 μM, 5 min; HEK-293 transiently expressing the hCB1
T1 construct: expressed in transfected cells; host or cells: HEK-293
Protocol: The difference in the concentrations of THC used in the two experiments is related to the different efficiency of transfection of hCB1 cDNA plasmid, which is stable in Experiment 1 and transient in Experiment 2.
MAPK phosphorylation (P-Erk1/2MAPK proteins) was measured by western blot. In experiment 1 the mitochondrial marker CoxIV and in experiment 2 the un-phosphorylated MAPK proteins were used as loading controls. The P-MAPK/CoxIV and P-MAPK/MAPK ratios were calculated and the data expressed as % of vehicle-treated cells.

THC-induced catalepsy = THC-induced catalepsy (catalepsy bar test); type: in vivo; details: per os 3 h before THC 10 mg/kg; mice
Protocol: Measuring of the catalepsy induced by THC was started 30 min after THC injection.
Catalepsy was measured by the catalepsy bar test. The forepaws of mice were placed on a bar fixed horizontally at 3.5 cm from the bench surface. The latency for moving from the bar was recorded with a cut-off time fixed at 420 s (7 min). Each mouse was submitted to a maximum of four consecutive trials. The maximum latency shown at one trial was selected as the measure of catalepsy.

THC dependent mice = assay: Precipitated withdrawal in mice chronically treated with THC; type: in vivo; details: mice repeatedly treated with THC 20 mg/kg ip; Rimo 10 mg/kg ip; 3pMBP […] per os
Protocol: The chronic THC regimen (20 mg/kg, twice a day) used in these experiments has been chosen because it mimics heavy marijuana use (Cook et al., 1998) and is considered as a model of cannabinoids dependence in mice (Cutando et al., 2013; Hutcheson et al., 1998). […] From day 1 to 4-5, mice were injected ip with vehicle or THC (20 mg/kg in NaCl 0.9% containing 2% ethanol and 2% Tween80, 10 ml/kg) twice a day. […] All the other animals received the administration of the respective vehicle. […] The dose and schedule of administration of rimonabant chosen for this study has been commonly used to precipitate THC withdrawal in mice (Cook et al. 1998, Hutcheson et al., 1998, Huang et al., 2009).
For the measure of precipitated withdrawal, mice were placed in a novel home cage and a video camera positioned in front of each cage recorded animals' behaviors. Scoring was performed for 1 minute every 5 min-period. Two withdrawal signs were analyzed: paw tremors and head shaking, since they are the most common signs of THC withdrawal observed in mice (Cook et al. 1998, Hutcheson et al., 1998, Lichtman et al., 2001).

in vitro = in vitro ADME, monkeys; details: monkey
[2] = Pharmacokinetics in plasma of dogs (LC/MS-MS); type: in vivo; details: for T1/2: manual linear regression on the last three points
[3] = Distribution in the brain of mice; type: in vivo
[4] = Metabolic stability in human liver microsomes (HLM); type: in vitro ADME; details: human LM, NADPH
Protocol: (§1) The investigation was performed on liver microsomes (LM) coming from mouse (MLM), rat (RLM), dog (DLM) and human (HLM).
(§2) 3pMBP was incubated with liver microsome pools supplemented with NADPH as cofactor. Samples were taken at 5 different times (0, 10, 20, 30 and 60 minutes) and samples were monitored for parent compound disappearance in MRM mode using LC/MS-MS. The Intrinsic Clearance and half-life have been determined. Verapamil was used as reference compound.

[5] = Metabolic stability in dog liver microsomes (DLM); type: in vitro ADME; details: dog LM, NADPH
Protocol: as §1, §2

[6] = system: testosterone, DHEA and allopregnanolone; assay: Conversion in downstream steroids, rats (GC/MS-MS); type: in vivo; details: male and female rats; acute or repeated (28 days) 2, 9 and 36 mg/kg
Protocol: (§3) In all these studies plasma concentrations of steroids were measured by gas chromatography-tandem mass spectrometry (GC/MS-MS).

[7] = system: testosterone, DHEA and allopregnanolone; assay: Conversion in downstream steroids, dogs (GC/MS-MS); type: in vivo; details: male and female dogs; acute or repeated (28 days) 2, 9 and 36 mg/kg
Protocol: as §3

CYP 2B6 = CYP 2B6 (Homo sapiens, UniProt P20813); assay: CYP inhibition in human liver microsomes; details: 10 μM
Source text: (§4) Reaction was initiated by adding NADPH-generating compounds and after stopping of reaction and samples treatment; HPLC-UV/VIS and HPLC-MS/MS detection were used for detection of peak areas corresponding to the metabolite of each substrate.

CYP 2C9 = CYP 2C9 (Homo sapiens, UniProt P11712); assay: CYP inhibition in human liver microsomes; details: 10 μM
Source text: as §4

OAT3 = OAT3 (Homo sapiens, UniProt Q8TCC7); assay: Cellular transporter inhibition, CHO cells (fluorometry); details: 10 μM
Protocol: (§5) Chinese Hamster Ovary (CHO) were used for all transporters except for P-gp that was studied in Madin-Darby Canine Kidney (MDR1-MDCKII) cells. The inhibition of the activity of each transporter is evaluated by measuring changes in the transport of their specific substrates by fluorometry.

OATP1B1 = OATP1B1 (Homo sapiens, UniProt Q9Y6L6); assay: as above; details: 10 μM
Protocol: as §5

P-gp = P-gp (Homo sapiens, UniProt P08183); assay: Cellular transporter inhibition, MDR1-MDCKII cells (fluorometry); details: 10 μM
Protocol: as §5

[8] = system: THC-induced object recognition impairment; assay: THC-induced impairment of long-term memory (object recognition test); details: per os 3 h before THC 6 mg/kg ip; mice
Source text: Ten minutes before THC injection, mice were allowed to explore 2 identical objects in an “L”-shaped maze. The day after, one object was replaced by a novel one. […] The comparison of the time spent exploring the familiar and the novel objects is used as an index of discrimination between familiarity and novelty. Therefore, this parameter is used to evaluate object recognition performances.

conscious rats = assay: Respiration in the unrestrained conscious rat (whole body plethysmography, GLP); details: 2, 9 and 36 mg/kg, single oral
Protocol: The day prior to the study, animals were only allowed to drink water. On the study day, animals were placed in the plethysmograph and measurements started immediately afterwards. The whole body plethysmography method measure in a closed chamber variations in air flow due to thoracic cage movements during respiration and enables the measurement of respiratory parameters in the conscious animal, totally free to move about. […] Respiration was recorded for a total period of 6 hours following the dosing. Respiratory parameters were determined from analysis of respiratory cycles.

T1 sequence (P21554 whole entry): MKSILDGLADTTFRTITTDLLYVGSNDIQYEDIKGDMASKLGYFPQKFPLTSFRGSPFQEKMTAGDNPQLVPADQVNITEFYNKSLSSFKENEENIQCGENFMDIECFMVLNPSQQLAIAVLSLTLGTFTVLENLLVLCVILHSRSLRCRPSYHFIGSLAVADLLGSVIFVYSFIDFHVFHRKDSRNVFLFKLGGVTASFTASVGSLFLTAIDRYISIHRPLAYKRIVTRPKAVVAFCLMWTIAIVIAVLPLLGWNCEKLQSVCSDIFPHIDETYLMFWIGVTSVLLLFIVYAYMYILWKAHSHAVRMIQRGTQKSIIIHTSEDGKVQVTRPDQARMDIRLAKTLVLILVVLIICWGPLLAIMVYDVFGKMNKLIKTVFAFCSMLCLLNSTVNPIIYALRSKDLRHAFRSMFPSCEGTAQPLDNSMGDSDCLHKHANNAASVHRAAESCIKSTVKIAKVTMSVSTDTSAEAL
Sequence of P-gp (P08183 whole entry): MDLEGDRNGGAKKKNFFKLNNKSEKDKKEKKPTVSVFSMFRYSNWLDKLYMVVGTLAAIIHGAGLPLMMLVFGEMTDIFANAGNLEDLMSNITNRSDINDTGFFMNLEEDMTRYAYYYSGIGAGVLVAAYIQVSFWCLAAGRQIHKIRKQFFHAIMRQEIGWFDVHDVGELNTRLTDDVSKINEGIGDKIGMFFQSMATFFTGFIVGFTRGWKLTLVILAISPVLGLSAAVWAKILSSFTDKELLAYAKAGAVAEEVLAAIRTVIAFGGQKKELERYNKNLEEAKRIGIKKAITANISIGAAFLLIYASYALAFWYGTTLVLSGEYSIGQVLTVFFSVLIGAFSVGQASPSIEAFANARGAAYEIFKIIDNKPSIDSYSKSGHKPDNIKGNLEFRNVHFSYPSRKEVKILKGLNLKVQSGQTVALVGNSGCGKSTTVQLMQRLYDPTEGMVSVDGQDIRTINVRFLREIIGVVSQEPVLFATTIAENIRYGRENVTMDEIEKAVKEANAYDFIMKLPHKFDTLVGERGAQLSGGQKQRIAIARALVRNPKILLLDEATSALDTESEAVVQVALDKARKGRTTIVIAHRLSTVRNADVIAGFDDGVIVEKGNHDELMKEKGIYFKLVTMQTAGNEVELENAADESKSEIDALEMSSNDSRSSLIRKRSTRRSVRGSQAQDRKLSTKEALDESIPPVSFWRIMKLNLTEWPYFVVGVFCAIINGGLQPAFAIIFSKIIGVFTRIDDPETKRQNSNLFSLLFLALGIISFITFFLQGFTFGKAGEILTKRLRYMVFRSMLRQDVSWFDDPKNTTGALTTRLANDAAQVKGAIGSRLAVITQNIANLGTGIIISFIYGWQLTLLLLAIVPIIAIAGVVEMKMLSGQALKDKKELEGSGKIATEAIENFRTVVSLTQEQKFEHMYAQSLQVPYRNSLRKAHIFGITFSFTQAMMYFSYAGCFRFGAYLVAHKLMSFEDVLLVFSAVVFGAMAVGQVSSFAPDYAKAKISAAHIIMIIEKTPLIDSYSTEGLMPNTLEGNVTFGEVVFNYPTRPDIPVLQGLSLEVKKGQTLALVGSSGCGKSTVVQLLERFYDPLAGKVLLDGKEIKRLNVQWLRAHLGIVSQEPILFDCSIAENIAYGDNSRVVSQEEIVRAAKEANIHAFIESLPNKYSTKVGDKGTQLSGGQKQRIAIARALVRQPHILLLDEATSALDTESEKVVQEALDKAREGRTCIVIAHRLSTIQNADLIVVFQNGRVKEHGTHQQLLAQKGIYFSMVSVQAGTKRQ
Sequence of OAT3 (Q8TCC7 whole entry): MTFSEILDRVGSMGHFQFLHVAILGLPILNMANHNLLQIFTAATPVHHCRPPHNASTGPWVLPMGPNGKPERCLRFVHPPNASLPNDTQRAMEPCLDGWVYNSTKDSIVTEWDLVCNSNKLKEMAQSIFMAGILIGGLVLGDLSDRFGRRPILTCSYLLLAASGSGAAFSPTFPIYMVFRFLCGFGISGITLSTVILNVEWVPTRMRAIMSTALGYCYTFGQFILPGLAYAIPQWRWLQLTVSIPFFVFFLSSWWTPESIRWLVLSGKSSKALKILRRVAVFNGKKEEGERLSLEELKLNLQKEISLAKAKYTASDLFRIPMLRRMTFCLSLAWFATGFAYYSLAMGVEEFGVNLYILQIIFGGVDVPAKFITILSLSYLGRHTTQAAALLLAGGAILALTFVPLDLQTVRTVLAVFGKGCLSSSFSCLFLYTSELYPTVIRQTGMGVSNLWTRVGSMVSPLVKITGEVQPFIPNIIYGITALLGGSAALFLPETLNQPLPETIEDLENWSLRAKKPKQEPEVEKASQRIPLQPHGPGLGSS
Sequence of CYP 2B6 (P20813 whole entry): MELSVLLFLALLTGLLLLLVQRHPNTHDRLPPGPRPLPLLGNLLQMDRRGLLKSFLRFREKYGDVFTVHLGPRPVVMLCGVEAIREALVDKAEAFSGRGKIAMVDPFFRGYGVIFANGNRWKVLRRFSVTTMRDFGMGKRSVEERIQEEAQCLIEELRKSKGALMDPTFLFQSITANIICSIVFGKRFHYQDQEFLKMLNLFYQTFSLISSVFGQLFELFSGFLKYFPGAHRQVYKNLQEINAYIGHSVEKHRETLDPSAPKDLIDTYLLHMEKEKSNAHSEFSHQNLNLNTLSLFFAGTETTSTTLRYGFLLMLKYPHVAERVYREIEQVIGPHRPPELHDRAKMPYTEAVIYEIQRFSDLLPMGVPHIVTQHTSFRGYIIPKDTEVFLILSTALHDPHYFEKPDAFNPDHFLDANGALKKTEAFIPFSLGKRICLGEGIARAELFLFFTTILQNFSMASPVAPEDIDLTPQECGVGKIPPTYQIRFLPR
Sequence of OATP1B1 (Q9Y6L6 whole entry): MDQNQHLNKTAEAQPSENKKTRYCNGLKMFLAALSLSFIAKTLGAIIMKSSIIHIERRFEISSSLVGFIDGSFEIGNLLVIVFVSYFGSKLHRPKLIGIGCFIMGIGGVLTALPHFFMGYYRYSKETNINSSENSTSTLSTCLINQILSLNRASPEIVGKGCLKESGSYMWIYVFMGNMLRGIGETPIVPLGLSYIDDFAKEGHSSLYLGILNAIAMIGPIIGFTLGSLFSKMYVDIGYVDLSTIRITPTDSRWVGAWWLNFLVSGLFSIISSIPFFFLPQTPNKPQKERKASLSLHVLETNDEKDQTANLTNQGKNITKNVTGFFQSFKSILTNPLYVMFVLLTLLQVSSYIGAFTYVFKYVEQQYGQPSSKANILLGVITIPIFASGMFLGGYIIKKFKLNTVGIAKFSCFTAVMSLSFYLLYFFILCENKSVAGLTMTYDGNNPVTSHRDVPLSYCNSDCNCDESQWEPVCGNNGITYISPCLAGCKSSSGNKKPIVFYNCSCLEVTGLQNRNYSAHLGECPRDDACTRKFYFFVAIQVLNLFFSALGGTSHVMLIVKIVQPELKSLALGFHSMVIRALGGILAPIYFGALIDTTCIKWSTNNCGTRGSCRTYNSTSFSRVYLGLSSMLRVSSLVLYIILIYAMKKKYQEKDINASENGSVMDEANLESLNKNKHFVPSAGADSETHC
Sequence of CYP 2C9 (P11712 whole entry): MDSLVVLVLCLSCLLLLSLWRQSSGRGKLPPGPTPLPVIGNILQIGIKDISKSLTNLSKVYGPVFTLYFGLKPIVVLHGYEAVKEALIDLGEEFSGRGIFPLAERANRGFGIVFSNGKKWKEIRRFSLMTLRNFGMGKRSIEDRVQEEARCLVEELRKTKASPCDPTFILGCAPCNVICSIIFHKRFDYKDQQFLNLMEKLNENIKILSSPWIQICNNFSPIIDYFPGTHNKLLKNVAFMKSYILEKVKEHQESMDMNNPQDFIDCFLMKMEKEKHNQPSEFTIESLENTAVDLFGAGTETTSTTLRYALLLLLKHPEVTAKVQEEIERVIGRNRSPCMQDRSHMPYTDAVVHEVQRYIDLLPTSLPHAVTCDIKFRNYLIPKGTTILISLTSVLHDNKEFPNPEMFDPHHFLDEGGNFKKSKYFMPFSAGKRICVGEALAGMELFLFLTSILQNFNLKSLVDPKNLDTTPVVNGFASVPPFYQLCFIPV

Compound: COc1ccc(CO[C@H]2CC[C@@]3(C)C(=CC[C@H]4[C@@H]5CC[C@H](C(C)=O)[C@@]5(C)CC[C@@H]43)C2)cc1 [3pMBP, 3β-(4-methoxybenzyloxy)pregn-5-en-20-one]
- % inhibition [1]: 100%
- ID100 [1]: 100 nM
- % inhibition (THC-induced catalepsy): 50%
- ID50 (THC-induced catalepsy): 5 µg/kg
- ID100 (THC-induced catalepsy): 50 µg/kg
- Duration of paw tremors (THC dependent mice): but not 3pMBP (0.15 mg/kg; per os) increases the duration of paw tremors
- fraction unbound (in vitro): 0.01 to 0.03
- bioavailability [2]: 68%
- bioavailability ([2]; both sexes, dog, plasma, oral, 0.7 mg/kg, read-out: bioavailability): ~68%
- Tmax ([2]; both sexes, dog, po, per os, 0.7 mg/kg, plasma, read-out: Tmax): ~3 h
- AUClast ([2]; iv, 0.7 mg/kg, plasma): 2192 ng·h/mL
- Cmax ([2]; iv, 0.7 mg/kg, plasma): 505 ng/mL
- Tmax ([2]; iv, 0.7 mg/kg, plasma): 0.125 h
- T1/2 ([2]; iv, 0.7 mg/kg, plasma): 35.9 h
- AUClast ([2]; per os, 0.7 mg/kg, plasma): 1452.5 ng·h/mL
- Cmax ([2]; per os, 0.7 mg/kg, plasma): 137.7 ng/mL
- Tmax ([2]; per os, 0.7 mg/kg, plasma): 2.67 h
- T1/2 ([2]; per os, 0.7 mg/kg, plasma): 28.0 h
- AUC in the brain vs plasma ([3]; conclusion sentence, species and dose not stated): four times higher AUC in the brain than in the plasma
- tmax in the brain ([3]; mice, per os): 7 h
- half-life [4]: 6.83 h
- microsomal CLint ([4]; read-out: intrinsic clearance): 3.38 µL/min/mg
- half-life [5]: 0.89 h
- microsomal CLint ([5]; read-out: intrinsic clearance): 26 µL/min/mg
- Plasma concentrations of testosterone, DHEA and allopregnanolone [6]: no effect
- Plasma concentrations of testosterone, DHEA and allopregnanolone [7]: no effect
- Inhibition of CYP 2B6 activity (CYP 2B6): no significant inhibition
- Inhibition of CYP 2C9 activity (CYP 2C9): no significant inhibition
- Activity of OAT3 (OAT3): did not modify the activity
- Activity of OATP1B1 (OATP1B1): did not modify the activity
- Activity of P-gp (P-gp): did not modify the activity
- % inhibition [8]: 100%
- ID50 [8]: <5 µg/kg
- Respiration (conscious rats): did not modify
